In PubChem BioAssay AID330 (DTP/NCI, 2004):
“And” between values parts separate entries of the source, which are not always exact repeats. Equal values may be shown once. Inconclusive results and toxic doses are left out.

Tested on: P388 leukemia ip, CD2F1 mice, survival T/C
Experiment: NCI In Vivo Anticancer Drug Screen. Data for tumor model P388 Leukemia (intraperitoneal) in CD2F1 (CDF1) mice
Conditions: endpoint: median survival time, higher = longer survival
Method in brief: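 Mice carrying the transplanted tumor received test compound or vehicle. Survival was recorded in each group, and the value is the treated-group measurement divided by that of the vehicle-treated control group.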

[1] = dose: 60.0 mg/kg/injection, schedule: Q01DX005 (ip), vehicle: saline with Tween-80
[2] = dose: 120.0 mg/kg/injection, schedule: Q01DX005 (ip), vehicle: saline with Tween-80
[3] = dose: 240.0 mg/kg/injection, schedule: Q01DX005 (ip), vehicle: saline with Tween-80
[4] = dose: 50.0 mg/kg/injection, schedule: Q01DX009 (ip), vehicle: saline with Tween-80
[5] = dose: 100.0 mg/kg/injection, schedule: Q01DX009 (ip), vehicle: saline with Tween-80
[6] = dose: 200.0 mg/kg/injection, schedule: Q01DX009 (ip), vehicle: saline with Tween-80
[7] = dose: 50.0 mg/kg/injection, schedule: Q01DX009 (ip), vehicle: Klucel (hydroxypropylcellulose) (HPC)
[8] = dose: 100.0 mg/kg/injection, schedule: Q01DX009 (ip), vehicle: Klucel (hydroxypropylcellulose) (HPC)
[9] = dose: 200.0 mg/kg/injection, schedule: Q01DX009 (ip), vehicle: Klucel (hydroxypropylcellulose) (HPC)

For `Cc1cc(NCCCCCCNc2cc(C)nc3cc([N+](=O)[O-])ccc23)c2ccc([N+](=O)[O-])cc2n1`, the T/C (dose: 50.0 mg/kg/injection, schedule: Q01DX009 (ip), vehicle: other) was 98 % of control, the T/C (dose: 100.0 mg/kg/injection, schedule: Q01DX009 (ip), vehicle: other) was 99 % of control and the T/C (dose: 200.0 mg/kg/injection, schedule: Q01DX009 (ip), vehicle: other) was 96 % of control. For the same compound, the T/C (dose: 400.0 mg/kg/injection, schedule: Q01DX009 (ip), vehicle: other) was 103 % of control.

`CC(=O)Nc1ccc(CC#N)cc1` was tested, and the T/C (dose: 5.0 mg/kg/injection, schedule: Q01DX009 (ip), vehicle: saline sonified) was 100 % of control, the T/C (dose: 10.0 mg/kg/injection, schedule: Q01DX009 (ip), vehicle: saline sonified) was 100 % of control and the T/C (dose: 20.0 mg/kg/injection, schedule: Q01DX009 (ip), vehicle: saline sonified) was 113 % of control.

With `O=C(c1ccccc1)C1CCCN(c2ccccc2)S1(=O)=O` (stereo unspecified) the T/C (dose: 100.0 mg/kg/injection, schedule: Q04DX003 (ip), vehicle: saline with Tween-80) was 98 % of control, the T/C (dose: 200.0 mg/kg/injection, schedule: Q04DX003 (ip), vehicle: saline with Tween-80) was 104 % of control and the T/C (dose: 400.0 mg/kg/injection, schedule: Q04DX003 (ip), vehicle: saline with Tween-80) was 94 % of control.

With `NC1=NN(Cc2csc(-c3ccccc3)n2)C(=O)C1` the T/C [1] was 103 % of control, the T/C [2] was 95 % of control and the T/C [3] was 103 % of control.

With `C=CCC(C(=O)OC)c1ccc(Cl)cc1` (stereo unspecified) the T/C (dose: 0.62 mg/kg/injection, schedule: Q01DX009 (ip), vehicle: saline) was 114 % of control, the T/C (dose: 1.25 mg/kg/injection, schedule: Q01DX009 (ip), vehicle: saline) was 98 % of control and the T/C (dose: 2.5 mg/kg/injection, schedule: Q01DX009 (ip), vehicle: saline) was 103 % of control.

In the case of `O=C(NCCCl)Nc1ccccc1C(=O)O`, the T/C [4] is reported as 90 % of control, the T/C [5] is reported as 95 % of control and the T/C [6] is reported as 99 % of control.

`O=C(C(Br)(Br)Br)C(Br)(Br)c1ccccc1` was tested, and the T/C [7] was 101 % of control, the T/C [8] was 101 % of control and the T/C [9] was 99 % of control.

For `N#CSc1ccc2nc(NCO)sc2c1`, the T/C [7] was 104 % of control and the T/C [8] was 101 % of control.

For `Cc1ccccc1N=Nc1c(N)ccc2ccccc12`, the T/C [8] was 105 % of control, the T/C [9] was 111 % of control and the T/C (dose: 400.0 mg/kg/injection, schedule: Q01DX009 (ip), vehicle: Klucel (hydroxypropylcellulose) (HPC)) was 109 % of control.

With `Cc1coc2c1C(O)C1(C)C(C)CCC(O)C1C2=O` (stereo unspecified) the T/C (dose: 7.5 mg/kg/injection, schedule: Q01DX009 (ip), vehicle: saline with Tween-80) was 101 % of control, the T/C (dose: 15.0 mg/kg/injection, schedule: Q01DX009 (ip), vehicle: saline with Tween-80) was 101 % of control and the T/C (dose: 30.0 mg/kg/injection, schedule: Q01DX009 (ip), vehicle: saline with Tween-80) was 101 % of control. For the same compound, the T/C (dose: 60.0 mg/kg/injection, schedule: Q01DX009 (ip), vehicle: saline with Tween-80) was 102 % of control.

In the case of `CC1=Nc2ccccc2NC2(C1)C(C1COC(C)(C)O1)OC1OC(C)(C)OC12` (stereo unspecified), the T/C (dose: 50.0 mg/kg/injection, schedule: Q01DX005 (ip), vehicle: saline with Tween-80) is reported as 95 % of control, the T/C (dose: 100.0 mg/kg/injection, schedule: Q01DX005 (ip), vehicle: saline with Tween-80) is reported as 99 % of control and the T/C (dose: 200.0 mg/kg/injection, schedule: Q01DX005 (ip), vehicle: saline with Tween-80) is reported as 100 % of control.

`O=C1C(c2ccccc2)=C(c2ccccc2)/C1=C/c1ccc(Cl)cc1` was tested, and the T/C (dose: 100.0 mg/kg/injection, schedule: Q01DX001 (ip), vehicle: Klucel (hydroxypropylcellulose) (HPC)) was 101 % of control, the T/C (dose: 200.0 mg/kg/injection, schedule: Q01DX001 (ip), vehicle: Klucel (hydroxypropylcellulose) (HPC)) was 105 % of control and the T/C (dose: 400.0 mg/kg/injection, schedule: Q01DX001 (ip), vehicle: Klucel (hydroxypropylcellulose) (HPC)) was 104 % of control.

In the case of `COc1cccc2c1C(=O)c1c(O)c3c(c(O)c1C2=O)C[C@@](O)(C(=O)COC(=O)CCCCC(=O)O)C[C@@H]3OC1CC(NC(=O)C(F)(F)F)C(O)C(C)O1` (stereo partly specified), the T/C (dose: 9.38 mg/kg/injection, schedule: Q04DX003 (ip), vehicle: other) is reported as 118 % of control, the T/C (dose: 18.75 mg/kg/injection, schedule: Q04DX003 (ip), vehicle: other) is reported as 123 % of control and the T/C (dose: 18.75 mg/kg/injection, schedule: Q04DX003 (ip), vehicle: saline with Tween-80) is reported as 119 % of control. For the same compound, the T/C (dose: 37.5 mg/kg/injection, schedule: Q04DX003 (ip), vehicle: other) was 124 % of control, the T/C (dose: 75.0 mg/kg/injection, schedule: Q04DX003 (ip), vehicle: other) was 156 % of control and the T/C (dose: 150.0 mg/kg/injection, schedule: Q04DX003 (ip), vehicle: other) was 194 % of control.

With `COc1ccc(N=C/C=C/c2ccccc2)cc1` the T/C [5] was 118 % of control, the T/C [6] was 118 % of control and the T/C (dose: 400.0 mg/kg/injection, schedule: Q01DX009 (ip), vehicle: saline with Tween-80) was 118 % of control.

In the case of `CN(C)C(=N)N(C)C`, the T/C (dose: 25.0 mg/kg/injection, schedule: Q01DX009 (ip), vehicle: saline with Tween-80) is reported as 100 % of control, the T/C [4] is reported as 100 % of control and the T/C [5] is reported as 95 % of control.

For `[N-]=[N+]=CC(=O)C1(c2ccccc2)OC1c1ccc([N+](=O)[O-])cc1` (stereo unspecified), the T/C (dose: 12.5 mg/kg/injection, schedule: Q01DX001 (ip), vehicle: saline with Tween-80) was 94 % of control, the T/C (dose: 25.0 mg/kg/injection, schedule: Q01DX001 (ip), vehicle: saline with Tween-80) was 93 % of control and the T/C (dose: 50.0 mg/kg/injection, schedule: Q01DX001 (ip), vehicle: saline with Tween-80) was 86 % of control and 95 % of control.

For `O=c1c2cc(Br)ccc2nc2n1N=C(c1ccccc1)C(c1ccccc1)=NN2`, the T/C (dose: 50.0 mg/kg/injection, schedule: Q04DX002 (ip), vehicle: Klucel (hydroxypropylcellulose) (HPC)) was 88 % of control, the T/C (dose: 100.0 mg/kg/injection, schedule: Q04DX002 (ip), vehicle: Klucel (hydroxypropylcellulose) (HPC)) was 91 % of control and the T/C (dose: 200.0 mg/kg/injection, schedule: Q04DX002 (ip), vehicle: Klucel (hydroxypropylcellulose) (HPC)) was 87 % of control.

For `CN1CCC(c2ccccc2)=C(Br)C1`, the T/C (dose: 60.0 mg/kg/injection, schedule: Q01DX005 (ip), vehicle: saline) was 102 % of control and the T/C (dose: 120.0 mg/kg/injection, schedule: Q01DX005 (ip), vehicle: saline) was 98 % of control.

`NC(=O)c1ccc(NO)cc1` was tested, and the T/C (dose: 50.0 mg/kg/injection, schedule: Q01DX009 (ip), vehicle: saline) was 106 % of control, the T/C (dose: 100.0 mg/kg/injection, schedule: Q01DX009 (ip), vehicle: saline) was 98 % of control and the T/C (dose: 200.0 mg/kg/injection, schedule: Q01DX009 (ip), vehicle: saline) was 94 % of control.

With `COc1ccc(CCN2C(=O)NC(=O)C2=O)cc1OC` the T/C [1] was 97 % of control, the T/C [2] was 101 % of control and the T/C [3] was 97 % of control.

`O=C(Nc1c(Cl)cccc1Cl)Oc1ccc(Cl)cc1` was tested, and the T/C [1] was 122 % of control and the T/C [2] was 114 % of control.

`COc1ccc(/C=N/NC(=O)/C(C#N)=C/c2ccc(OC)cc2)cc1` was tested, and the T/C (dose: 100.0 mg/kg/injection, schedule: Q04DX003 (ip), vehicle: saline) was 110 % of control, the T/C (dose: 200.0 mg/kg/injection, schedule: Q04DX003 (ip), vehicle: saline) was 105 % of control and the T/C (dose: 400.0 mg/kg/injection, schedule: Q04DX003 (ip), vehicle: saline) was 95 % of control.

For `COC(=O)C1C2CC3c4[nH]c5c([N+](=O)[O-])c(OC)ccc5c4CCN3CC2CC(OC(=O)c2cc(OC)c(OC)c(OC)c2)C1OC` (stereo unspecified), the T/C (dose: 9.38 mg/kg/injection, schedule: Q01DX005 (ip), vehicle: Klucel (hydroxypropylcellulose) (HPC)) was 98 % of control, the T/C (dose: 18.75 mg/kg/injection, schedule: Q01DX005 (ip), vehicle: Klucel (hydroxypropylcellulose) (HPC)) was 95 % of control and the T/C (dose: 37.5 mg/kg/injection, schedule: Q01DX005 (ip), vehicle: Klucel (hydroxypropylcellulose) (HPC)) was 96 % of control. The T/C (dose: 75.0 mg/kg/injection, schedule: Q01DX005 (ip), vehicle: Klucel (hydroxypropylcellulose) (HPC)) was 86 % of control.

`COC(=O)C1=CO[C@@H](OC2OC(CO)C(O)C(O)C2O)[C@@H]2[C@@H](CO)[C@@H](O)[C@@H](OC(=O)/C=C/c3ccc(O)c(O)c3)[C@H]12` (stereo partly specified) was tested, and the T/C (dose: 7.25 mg/kg/injection, schedule: Q01DX005 (ip), vehicle: saline + alcohol) was 106 % of control, the T/C (dose: 14.5 mg/kg/injection, schedule: Q01DX005 (ip), vehicle: saline + alcohol) was 107 % of control and the T/C (dose: 29.0 mg/kg/injection, schedule: Q01DX005 (ip), vehicle: saline + alcohol) was 109 % of control. For the same compound, the T/C (dose: 58.0 mg/kg/injection, schedule: Q01DX005 (ip), vehicle: saline + alcohol) was 113 % of control.

`Cc1ncc(C(O)CCC2OCCO2)n1Cc1ccccc1` (stereo unspecified) was tested, and the T/C [7] was 96 % of control, the T/C [8] was 98 % of control and the T/C [9] was 98 % of control.

For `S=C1NCC[Se]1`, the T/C (dose: 6.25 mg/kg/injection, schedule: Q01DX009 (ip), vehicle: DMSO) was 103 % of control and the T/C (dose: 12.5 mg/kg/injection, schedule: Q01DX009 (ip), vehicle: DMSO) was 105 % of control.
